Here are results for 3 compounds from PMC12157126, “Saturation kinetics and specificity of transporters for L-arginine and asymmetric dimethylarginine (ADMA) at the blood-brain and blood-CSF barriers” (PLOS One, 2025).

The test system of data set [1] is blood-brain and blood-CSF barriers. Put plainly: In situ brain/choroid plexus perfusion with capillary depletion: CNS uptake of [3H]-arginine in absence and presence of transporter inhibitors. Format: in vivo, adult male BALB/c mice. The following applies: for effect on [3H]-arginine distribution / effect on [3H]-arginine uptake: 4 mM BCH or 500 μM α-methyl-D,L-tryptophan; for effect on [3H]-arginine uptake: majority of brain regions sampled. The method, then:
(§1) The in situ brain/choroid plexus perfusion method was performed as previously described and will only be briefly detailed here. […] At the end of the perfusion period a CSF sample was taken from the cisterna magna, the animal was decapitated, the brain removed and samples taken under a Leica S4E L2 stereomicroscope (Leica; Buckinghamshire, UK). […] The circumventricular organs (CVOs) including the choroid plexus, pituitary gland and pineal gland were also sampled. Brain samples were also taken for capillary depletion analysis.
(§2) Both the physiological capillary depletion buffer and dextran solution were maintained at 4 °C to halt any cell metabolism and transport processes, and to reduce any cellular or protein damage due to heat generated from the homogenisation process. The whole brain homogenate was then taken for dextran density centrifugation (5,400 x g) and 4 °C to produce an endothelial cell-enriched pellet and supernatant containing brain parenchyma.
(§3) The transporter proteins these inhibitors target are listed in S1 Table in S1 File.
(§4) % change=RTissue−RInhibition /RTissue× 100 (2)

Data set [2] shares this test system. Put plainly: In situ brain/choroid plexus perfusion with capillary depletion: CNS uptake of [3H]-ADMA in absence and presence of transporter inhibitors. To be noted: for RBrain of [3H]-ADMA in presence of inhibitor: 10 min, sucrose corrected; for RBrain of [3H]-ADMA in presence of inhibitor / % inhibition of [3H]-ADMA uptake: L-homoarginine 20 mM; for effect on [3H]-ADMA uptake: brain homogenate or supernatant. The method, then: as §1, §2, §3, §4

Where [3] appears, read: caudate nucleus, BCH 4 mM, α-methyl-D,L-tryptophan 500 μM, L-phenylalanine 200 μM, L-leucine 5 mM, harmaline 2 mM.
Setting [4] is: choroid plexus, BCH 4 mM, L-phenylalanine 200 μM, L-leucine 5 mM, harmaline 2 mM.
[5] abbreviates: frontal cortex, BCH 4 mM, α-methyl-D,L-tryptophan 500 μM, L-phenylalanine 200 μM, L-leucine 5 mM, harmaline 2 mM.
Setting [6] is: hippocampus, BCH 4 mM, α-methyl-D,L-tryptophan 500 μM, L-phenylalanine 200 μM, L-leucine 5 mM, harmaline 2 mM.
The mark [7] stands for this setting: hypothalamus, BCH 4 mM, α-methyl-D,L-tryptophan 500 μM, L-phenylalanine 200 μM, L-leucine 5 mM, harmaline 2 mM.
The mark [8] stands for this setting: occipital cortex, BCH 4 mM, α-methyl-D,L-tryptophan 500 μM, L-phenylalanine 200 μM, L-leucine 5 mM, harmaline 2 mM.
Setting [9] is: pineal gland, BCH 4 mM, α-methyl-D,L-tryptophan 500 μM, L-phenylalanine 200 μM, L-leucine 5 mM, harmaline 2 mM.
[10] abbreviates: pituitary gland, BCH 4 mM, L-phenylalanine 200 μM, L-leucine 5 mM, harmaline 2 mM.
[11] abbreviates: thalamus, BCH 4 mM, α-methyl-D,L-tryptophan 500 μM, L-phenylalanine 200 μM, L-leucine 5 mM, harmaline 2 mM.
[12] abbreviates: CSF, choroid plexus and pituitary gland.
Where [13] appears, read: homogenate, supernatant, pellet.
Where [14] appears, read: brain and choroid plexus (up to), system B0,+ inhibitors.

`NC(N)=NCCCC[C@H](N)C(=O)O` [L-homoarginine, reference compound]: the “inhibition of [3H]-arginine uptake” value in data set [1] (20 mM L-homoarginine, all brain regions (up to), 10 min) is “up to 99.7%”. Further, the “inhibition of [3H]-arginine distribution” value in data set [1] (20 mM L-homoarginine, choroid plexus) stood at 99.8%; in data set [1] (20 mM L-homoarginine, pituitary gland), 97.6%. Besides, the “reduced uptake of [3H]-arginine” value in data set [1] (20 mM L-homoarginine, hypothalamus, did not attain statistical significance) was 98.0%. In data set [1] (L-homoarginine, CSF, failed to attain statistical significance (n=3)), the “decrease in [3H]-arginine distribution” value amounted to 88.4%. In data set [2] (20 mM L-homoarginine, all brain regions (up to)), the “inhibition of [3H]-ADMA uptake” value is listed as “up to 99.2%”. Besides, the “RBrain of [3H]-ADMA in presence of inhibitor” value (from here on “RBrain … of inhibitor”) in data set [2] (CSF, BCH 4 mM, α-methyl-D,L-tryptophan 500 μM, L-phenylalanine 200 μM, L-leucine 5 mM, harmaline 2 mM) turned out to be 2.45±0.52 ml.100g^-1; in data set [2] (setting [3]), 0.18±0.13 ml.100g^-1; in data set [2] (cerebellum, BCH 4 mM, α-methyl-D,L-tryptophan 500 μM, L-phenylalanine 200 μM, L-leucine 5 mM, harmaline 2 mM) it was 0.37±0.19 ml.100g^-1; in data set [2] (choroid plexus, BCH 4 mM, α-methyl-D,L-tryptophan 500 μM, L-phenylalanine 200 μM, L-leucine 5 mM, harmaline 2 mM), 30.73±22.20 ml.100g^-1; in data set [2] (setting [5]), 1.06±1.02 ml.100g^-1; in data set [2] (setting [6]) it was 0.20±0.13 ml.100g^-1. For the same compound, the “RBrain … of inhibitor” value came out at 3.74±3.52 ml.100g^-1 in data set [2] (homogenate, BCH 4 mM, α-methyl-D,L-tryptophan 500 μM, L-phenylalanine 200 μM, L-leucine 5 mM, harmaline 2 mM); 1.54±1.12 ml.100g^-1 in data set [2] (setting [7]); 0.49±0.40 ml.100g^-1 in data set [2] (setting [8]); 2.32±1.65 ml.100g^-1 in data set [2] (pellet, BCH 4 mM, α-methyl-D,L-tryptophan 500 μM, L-phenylalanine 200 μM, L-leucine 5 mM, harmaline 2 mM); 12.43±6.87 ml.100g^-1 in data set [2] (setting [9]); 8.57±3.99 ml.100g^-1 in data set [2] (pituitary gland, BCH 4 mM, α-methyl-D,L-tryptophan 500 μM, L-phenylalanine 200 μM, L-leucine 5 mM, harmaline 2 mM). The “RBrain … of inhibitor” value in data set [2] (pons, BCH 4 mM, α-methyl-D,L-tryptophan 500 μM, L-phenylalanine 200 μM, L-leucine 5 mM, harmaline 2 mM) is reported as 2.36±1.06 ml.100g^-1; in data set [2] (supernatant, BCH 4 mM, α-methyl-D,L-tryptophan 500 μM, L-phenylalanine 200 μM, L-leucine 5 mM, harmaline 2 mM), 3.43±1.95 ml.100g^-1; in data set [2] (setting [11]) it was 1.81±0.71 ml.100g^-1. Moreover, the “% inhibition of [3H]-ADMA uptake” value in data set [2] (setting [3]) is reported as 99.2%; in data set [2] (cerebellum) it was 97.9%; in data set [2] (setting [4]) it was 88.2%; in data set [2] (setting [5]) it was 95.7%; in data set [2] (setting [6]), 99.1%; in data set [2] (setting [7]), 94.9%. In addition, the “% inhibition of [3H]-ADMA uptake” value in data set [2] (setting [8]) is 97.8%; in data set [2] (setting [9]) it was 93.6%; in data set [2] (setting [10]), 95.3%; in data set [2] (pons), 90.4%; in data set [2] (supernatant (brain parenchyma)), 65.8%; in data set [2] (setting [11]), 91.4%. Moreover, the “% inhibition of [3H]-ADMA uptake” value in data set [2] (whole brain homogenate, L-phenylalanine 200 μM, L-leucine 5 mM) came out at 78.9%.
With `NC1(C(=O)O)CC2CCC1C2` (stereo not drawn) [BCH, 2-amino-endo-bicyclo[2.2.1]heptane-2-carboxylic acid, reference compound], the “effect on [3H]-arginine distribution” value is recorded as “no statistically significant effect” in data set [1] (setting [12]) and “no significant effect” in data set [1] (setting [13]). The “effect on [3H]-arginine uptake” value in data set [1] is given as “did not significantly affect”. In data set [2] (setting [14]), the “inhibition of [3H]-ADMA uptake” value is given as “up to 50.0%”. The “effect on [3H]-ADMA uptake” value in data set [2] was “did not significantly affect”. The “% inhibition of [3H]-ADMA uptake” value in data set [2] (setting [3]) came out at 37.5%; in data set [2] (setting [4]), 50.0%; in data set [2] (setting [6]), 36.6%; in data set [2] (setting [7]) it was 36.8%; in data set [2] (setting [8]), 34.2%; in data set [2] (setting [9]), 65.6%. The “% inhibition of [3H]-ADMA uptake” value in data set [2] (setting [10]) was determined as 61.5%.
Turning to `CC(N)(Cc1c[nH]c2ccccc12)C(=O)O` (racemic) [α-methyl-D,L-tryptophan, reference compound], the “effect on [3H]-arginine distribution” value is “no statistically significant effect” in data set [1] (setting [12]) and “no significant effect” in data set [1] (setting [13]). Also, the “effect on [3H]-arginine uptake” value in data set [1] is reported as “did not significantly affect”. The “inhibition of [3H]-ADMA uptake” value in data set [2] (setting [14]) is “up to 50.0%”. In addition, in data set [2], the “effect on [3H]-ADMA uptake” value is “did not significantly affect”. Besides, the “% inhibition of [3H]-ADMA uptake” value in data set [2] (setting [3]) is 49.1%; in data set [2] (setting [5]), 48.0%; in data set [2] (setting [8]), 45.5%; in data set [2] (setting [9]) it was 80.6%.
